This is an account of results in patent US20250282799A1, “SUBSTITUTED PYRIDO[4,3-d]PYRIMIDINES AS KRAS MODULATORS” (Alterome Therapeutics, Inc., priority 2023, published 2025).

This assay relates to KRAS G12V dependent lung adenocarcinoma cell line, NCI-H441. Briefly: Cellular pERK (Thr202/Tyr204) FRET/HTRF assay. The assay is classed as cell-based. Conditions: Homo sapiens, NCI-H441, cellular pERK (Thr202/Tyr204) HTRF, NCI-H441 cells. The method in brief:
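Phospho-ERK1/2 (Thr202/Tyr204) quantified by two-antibody HTRF in lysed NCI-H441 cells. Cells seeded overnight, treated with test compounds for 1 hr at 37 °C against DMSO control, then lysed and detected at room temperature; IC50 obtained by curve fitting.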
For orientation: Time-resolved FRET reads energy transfer from a long-lived donor to a nearby acceptor.
The IC50 is the point on the concentration scale where inhibition reaches its midpoint. On to `[2H]C([2H])(F)Oc1c(F)ccc2cccc(-c3ncc4c(N5CCOC[C@H]6[C@H](F)[C@H]65)nc(OC[C@]56C/C(=C/F)CN5CCC65CC5)nc4c3F)c12` [Example 386, (1S,7S,8S)-8-fluoro-2-(8-fluoro-7-(7-fluoro-8-(fluoromethoxy-d2)naphthalen-1-yl)-2-(((R,Z)-6′-(fluoromethylene)tetrahydrospiro[cyclopropane-1,1′-pyrrolizin]-7a′(5′H)-yl)methoxy)pyrido[4,3-d]pyrimidin-4-yl)-5-oxa-2-azabicyclo[5.1.0]octane], for which the IC50 is < 50 nM.
As for `[2H]C([2H])(F)Oc1c(F)ccc2cc(N)cc(-c3ncc4c(N5CCOC[C@H]6[C@H](F)[C@H]65)nc(OC[C@]56CC(=C)CN5CCC65CC5)nc4c3F)c12` [Example 387, 6-fluoro-4-(8-fluoro-4-((1S,7S,8S)-8-fluoro-5-oxa-2-azabicyclo[5.1.0]octan-2-yl)-2-(((R)-6′-methylenetetrahydrospiro[cyclopropane-1,1′-pyrrolizin]-7a′(5′H)-yl)methoxy)pyrido[4,3-d]pyrimidin-7-yl)-5-(fluoromethoxy-d2)naphthalen-2-amine], the IC50 was < 50 nM.
For `[2H]C([2H])(F)Oc1c(F)ccc2cc(N)cc(-c3ncc4c(N5CCOC[C@H]6[C@H](F)[C@H]65)nc(OC[C@]56C/C(=C\F)CN5CCC65CC5)nc4c3F)c12` [Example 388, 6-fluoro-4-(8-fluoro-4-((1S,7S,8S)-8-fluoro-5-oxa-2-azabicyclo[5.1.0]octan-2-yl)-2-(((R,E)-6′-(fluoromethylene)tetrahydrospiro[cyclopropane-1,1′-pyrrolizin]-7a′(5′H)-yl)methoxy)pyrido[4,3-d]pyrimidin-7-yl)-5-(fluoromethoxy-d2)naphthalen-2-amine] the value was < 50 nM; for `[2H]C([2H])(F)Oc1c(F)ccc2cc(N)cc(-c3ncc4c(N5CCOC[C@H]6[C@H](F)[C@H]65)nc(OC[C@]56C/C(=C/F)CN5CCC65CC5)nc4c3F)c12` [Example 389, 6-fluoro-4-(8-fluoro-4-((1S,7S,8S)-8-fluoro-5-oxa-2-azabicyclo[5.1.0]octan-2-yl)-2-(((R,Z)-6′-(fluoromethylene)tetrahydrospiro[cyclopropane-1,1′-pyrrolizin]-7a′(5′H)-yl)methoxy)pyrido[4,3-d]pyrimidin-7-yl)-5-(fluoromethoxy-d2)naphthalen-2-amine], < 50 nM.
To `C=C1CN2CCC[C@@]2(COc2nc(N3CCCC[C@H]4[C@H](F)[C@H]43)c3cnc(-c4cc(N)c(F)c(C)c4C(F)(F)F)c(F)c3n2)C1` [Example 392, 2-fluoro-5-(8-fluoro-4-((1S,7R,8S)-8-fluoro-2-azabicyclo[5.1.0]octan-2-yl)-2-(((S)-2-methylenetetrahydro-1H-pyrrolizin-7a(5H)-yl)methoxy)pyrido[4,3-d]pyrimidin-7-yl)-3-methyl-4-(trifluoromethyl)aniline] belongs 50 to 500 nM; to `C=C1CN2CCC[C@@]2(COc2nc(N3CCCC[C@@H]4[C@@H](F)[C@@H]43)c3cnc(-c4cc(N)c(F)c(C)c4C(F)(F)F)c(F)c3n2)C1` [Example 393, 2-fluoro-5-(8-fluoro-4-((1R,7S,8R)-8-fluoro-2-azabicyclo[5.1.0]octan-2-yl)-2-(((S)-2-methylenetetrahydro-1H-pyrrolizin-7a(5H)-yl)methoxy)pyrido[4,3-d]pyrimidin-7-yl)-3-methyl-4-(trifluoromethyl)aniline], 500 to 10000 nM; to `Cc1c(F)c(N)cc(-c2ncc3c(N4CCCC[C@H]5[C@H](F)[C@H]54)nc(OC[C@@]45CCCN4CC(=C(F)F)C5)nc3c2F)c1C(F)(F)F` [Example 394, 5-(2-(((S)-2-(difluoromethylene)tetrahydro-1H-pyrrolizin-7a(5H)-yl)methoxy)-8-fluoro-4-((1S,7R,8S)-8-fluoro-2-azabicyclo[5.1.0]octan-2-yl)pyrido[4,3-d]pyrimidin-7-yl)-2-fluoro-3-methyl-4-(trifluoromethyl)aniline], 500 to 10000 nM.
